Assay results: US7816371B2, “Bicycloheteroaryl compounds as P2X7 modulators and uses thereof” (Renovis, Inc., priority 2006, dated 2010)

Tested on: not listed separately
Test: Pharmacokinetic evaluation following intravenous and oral administration in rats (oral bioavailability)
Type: in vivo, Male Sprague-Dawley rats
Details: PO 1 to 5 mg/kg vs IV 1 mg/kg, AUCinf normalized to dose
Method: Male Sprague-Dawley rats are acclimatized for at least 24 hours prior to experiment initiation. […] During the first 3 hours of experimentation, the animals receive only water ad libitum. At least three animals each are tested for intravenous and oral dosage. For intravenous formulation, compounds were dissolved (0.25 to 1 mg/mL) in a mixture of 3% dimethyl sulfoxide, 40% PEG 400 and the rest percentage of 40% Captisol in water (w/v). The animals are weighed before dosing. The determined body weight is used to calculate the dose volume for each animal.
PO rats are typically dosed through oral gavage following the same dose volume formula as IV to achieve a dose level of 1 to 5 mg/kg. […] About 250 uL of blood is obtained at each time point from the animal. Equal volumes of 0.9% normal saline are replaced to prevent dehydration. The whole blood samples are maintained on ice until centrifugation. Blood samples are then centrifuged at 14,000 rpm for 10 minutes at 4° C. and the upper plasma layer transferred into a clean vial and stored at −80° C. The resulting plasma samples are then analyzed by liquid chromatography-tandem mass spectrometry. Following the measurement of plasma samples and dosing solutions, plasma concentration-time curve is plotted. […] The % F is reported as the mean % F of all animals dosed orally with the compound of the invention at the specified level (see Table 4 below).

Oral Bioavailability F (%)	Compound
++ (26-50% F)	Cc1ccc2c(=O)n([C@H](C)CO)ccc2c1NC(=O)Cc1cccc(C(F)(F)F)c1F [Compound 395]

Tested on: not listed separately
Test: Determination of aqueous (kinetic) solubility
Type: physicochemical
Details: buffer pH 7.4, room temperature
Method: The mixture was vortexed for 1 hour and equilibrated overnight at room temperature. The mixture was filtered through a saturated filter and the filtrate was analyzed by LC/MS/MS.

solubility [µM]	Compound
> 75	Cc1ccc2c(c1NC(=O)Cc1ccc(C(F)(F)F)c(F)c1)CCN([C@H](C)CO)C2=O [Compound 401, N-[6-Methyl-2-((R)-2-hydroxy-1-methyl-ethyl)-1-oxo-1,2,3,4-tetrahydro-isoquinolin-5-yl]-2-(3-fluoro-4-trifluoromethyl-phenyl)-acetamide]

Biological target: T1, P2X7 receptor (Homo sapiens, UniProt Q99572)
T1 construct: host or cells: THP-1 cells differentiated with LPS and IFN-γ
T1 sequence (Q99572 1-595): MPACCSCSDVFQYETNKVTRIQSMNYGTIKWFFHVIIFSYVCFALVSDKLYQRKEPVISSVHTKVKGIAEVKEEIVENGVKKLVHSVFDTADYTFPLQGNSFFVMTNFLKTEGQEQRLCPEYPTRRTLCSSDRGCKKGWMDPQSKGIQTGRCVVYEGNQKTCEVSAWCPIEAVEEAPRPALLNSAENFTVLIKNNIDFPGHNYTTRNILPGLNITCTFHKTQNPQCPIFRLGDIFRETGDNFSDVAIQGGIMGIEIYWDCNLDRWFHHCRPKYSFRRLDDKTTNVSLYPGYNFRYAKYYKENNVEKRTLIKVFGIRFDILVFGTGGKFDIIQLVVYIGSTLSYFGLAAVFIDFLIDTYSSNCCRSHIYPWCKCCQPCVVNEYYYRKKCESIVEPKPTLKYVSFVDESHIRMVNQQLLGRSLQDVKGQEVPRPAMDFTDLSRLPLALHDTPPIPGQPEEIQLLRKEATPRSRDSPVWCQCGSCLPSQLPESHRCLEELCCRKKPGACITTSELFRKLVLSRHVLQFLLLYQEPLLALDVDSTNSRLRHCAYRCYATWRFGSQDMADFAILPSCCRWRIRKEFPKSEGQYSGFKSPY
Test: IL-1β release assay in differentiated THP-1 cells stimulated with BzATP (Example 9); % inhibition and IC50
Type: cell-based
Details: THP-1 cells differentiated with LPS and IFN-γ, 30 min pretreatment, BzATP 250 uM, IL-1β by ELISA
Method in brief: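 Differentiated THP-1 cells pretreated 30 min with compound in RPMI before BzATP stimulation. Supernatant IL-1β measured by ELISA. Percent inhibition derived from background-adjusted IL-1β of treated versus untreated cells.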

Compound	IC50 [nM]
C[C@H](C(N)=O)n1ccc2c(NC(=O)[C@H](C)c3ccc(Cl)cc3)cccc2c1=O [Compound 262]	73.1
C[C@H](C(N)=O)n1ccc2c(NC(=O)Cc3cccc(OC(F)(F)F)c3)cccc2c1=O [Compound 313]	713
C[C@H](C(N)=O)n1ccc2c(NC(=O)Cc3ccccc3Cl)cccc2c1=O [Compound 260]	694
CC(C)(CO)n1ccc2c(NC(=O)Cc3ccc(F)c(C(F)(F)F)c3)cccc2c1=O [Compound 367]	106
O=C(Cc1ccc(Cl)cc1C(F)(F)F)Nc1cccc2c(=O)n(C(CO)CO)ccc12 [Compound 228]	212
CC(C(=O)Nc1cccc2c(=O)n([C@@H](C)C(N)=O)ccc12)c1cccc(C(F)(F)F)c1F (some centres unmarked) [Compound 355]	36.9
C[C@H](C(N)=O)n1ccc2c(NC(=O)Cc3cc(F)c(F)cc3F)cccc2c1=O [Compound 305]	36.3
C[C@@H](CO)n1ccc2c(NC(=O)Cc3cccc(C(F)(F)F)c3F)cccc2c1=O [Compound 325]	84.6
O=C(Cc1ccc(Cl)cc1Cl)Nc1cccc2c(=O)n(C(CO)CO)ccc12 [Compound 82]	228
COc1ccc(CC(=O)Nc2cccc3c(=O)n(CCO)ccc23)cc1 [Compound 2]	> 1000
C[C@H](C(N)=O)n1ccc2c(NC(=O)Cc3ccc(-c4ccccc4)cc3)cccc2c1=O [Compound 289]	53
NC(=O)[C@H](CO)n1ccc2c(NC(=O)Cc3ccc(Cl)c(Cl)c3)cccc2c1=O [Compound 253]	763
COc1ccc(OC)c(CC(=O)Nc2cccc3c(=O)n(CCO)ccc23)c1 [Compound 77]	> 1000
C[C@H](C(N)=O)n1ccc2c(NC(=O)c3cccc4ncccc34)cccc2c1=O [Compound 272]	> 1000
C[C@H](C(=O)Nc1cccc2c(=O)n([C@@H](C(N)=O)c3ccccc3)ccc12)c1ccc(Cl)c(Cl)c1 [Compound 278, (S)—N-[2-((R)-Carbamoyl-phenyl-methyl)-1-oxo-1,2-dihydro-isoquinolin-5-yl]-2-(3,4-dichloro-phenyl)-propionamide]	58
C[C@H](CO)n1ccc2c(NC(=O)Cc3ccc(Cl)cc3F)cccc2c1=O [Compound 327]	39.4
C[C@@H](C(N)=O)n1ccc2c(NC(=O)Cc3ccc(Cl)c(Cl)c3)cccc2c1=O [Compound 236, (S)-2-{5-[2-(3,4-Dichloro-phenyl)-acetylamino]-1-oxo-1H-isoquinolin-2-yl}-propionamide]	46.6
C[C@H](C(=O)Nc1cccc2c(=O)n([C@@H](C(N)=O)c3ccccc3)ccc12)c1ccc(Cl)cc1 [Compound 279, (S)—N-[2-((R)-Carbamoyl-phenyl-methyl)-1-oxo-1,2-dihydro-isoquinolin-5-yl]-2-(4-chloro-phenyl)-propionamide]	106
CC(C(=O)Nc1cccc2c(=O)n(C(CO)CO)ccc12)c1ccc(Cl)cc1 (centres unmarked) [Compound 231]	374
O=C(Cc1cc(C(F)(F)F)cc(C(F)(F)F)c1)Nc1cccc2c(=O)n(CCO)ccc12 [Compound 64]	113
O=C(Cc1ccc2c(c1)OCCO2)Nc1cccc2c(=O)n(CCO)ccc12 [Compound 63]	> 1000
C[C@H](C(N)=O)n1ccc2c(NC(=O)Cc3c(F)cccc3F)cccc2c1=O [Compound 292]	> 1000

The next lines start with the values.

IC50 [nM]	Compound
34.4	C[C@H](C(N)=O)n1ccc2c(NC(=O)Cc3ccc(Cl)cc3)cccc2c1=O [Compound 256]
30.3	O=C(Cc1ccc(Cl)c(Cl)c1)Nc1cccc2c(=O)n(CCO)ccc12 [Compound 8]
29.6	C[C@@H](C(N)=O)n1ccc2c(NC(=O)Cc3ccc(Cl)c(C(F)(F)F)c3)cccc2c1=O [Compound 353]
25.3	CC(C(=O)Nc1cccc2c(=O)n([C@H](C)C(N)=O)ccc12)c1ccc(Cl)c(Cl)c1 (some centres unmarked) [Compound 254]
25.1	C[C@H](CO)n1ccc2c(NC(=O)Cc3ccc(C(F)(F)F)cc3)cccc2c1=O [Compound 319]
23.6	C[C@H](C(N)=O)n1ccc2c(NC(=O)Cc3ccc(Cl)cc3C(F)(F)F)cccc2c1=O [Compound 241]
22.1	C[C@H](CO)n1ccc2c(NC(=O)Cc3cccc(C(F)(F)F)c3F)cccc2c1=O [Compound 324]
18.8	CC(C(=O)Nc1cccc2c(=O)n([C@H](C)C(N)=O)ccc12)c1ccc(Cl)cc1 (some centres unmarked) [Compound 247]
15.2	C[C@H](C(=O)Nc1cccc2c(=O)n([C@@H](C)C(N)=O)ccc12)c1ccc(Cl)cc1 [Compound 265]
13.3	C[C@H](C(=O)Nc1cccc2c(=O)n([C@H](C)C(N)=O)ccc12)c1ccc(Cl)cc1 [Compound 263]
5.96	C[C@H](C(N)=O)n1ccc2c(NC(=O)Cc3ccc(Cl)c(F)c3)cccc2c1=O [Compound 300]
5.07	C[C@H](C(N)=O)n1ccc2c(NC(=O)Cc3ccc(C(F)(F)F)c(F)c3)cccc2c1=O [Compound 306]
4.05	C[C@H](C(N)=O)n1ccc2c(NC(=O)Cc3ccc(Cl)c(Cl)c3)cccc2c1=O [Compound 239]
1.44	Cc1ccc2c(c1NC(=O)Cc1ccc(C(F)(F)F)c(F)c1)CCN([C@H](C)CO)C2=O [Compound 401, N-[6-Methyl-2-((R)-2-hydroxy-1-methyl-ethyl)-1-oxo-1,2,3,4-tetrahydro-isoquinolin-5-yl]-2-(3-fluoro-4-trifluoromethyl-phenyl)-acetamide]
1.26	C[C@H](C(N)=O)n1ccc2c(NC(=O)Cc3ccc(Cl)c(C(F)(F)F)c3)cccc2c1=O [Compound 238, (R)-2-{5-[2-(4-Chloro-3-trifluoromethyl-phenyl)-acetylamino]-1-oxo-1H-isoquinolin-2-yl}-propionamide]
1.14	C[C@H](CO)n1ccc2c(NC(=O)Cc3ccc(Cl)c(C(F)(F)F)c3)cccc2c1=O [Compound 362]
0.74	Cc1ccc2c(=O)n([C@H](C)CO)ccc2c1NC(=O)Cc1ccc(F)c(C(F)(F)F)c1 [Compound 394]
